# According to US8754242B2, “Herbicides” (Syngenta Crop Protection LLC, priority 2007, dated 2014):
# How the values were obtained:
# Format in all cases: in vivo
# [1] = tested on: Echinochloa crus-galli (ECHCG); assay: Test Example 1 post-emergence herbicidal activity; settings: 360 h, rate 125 g/ha, evaluated 15 days later, read-out: Post-emergence activity ECHCG (100=total damage to plant; 0=no damage to plant)
# Procedure: (§1) Monocotyledonous and dicotyledonous test plants were sown in standard soil in pots. After cultivation for one day (pre-emergence) or after 10 days cultivation (post-emergence) under controlled conditions in a glasshouse, the plants were sprayed with an aqueous spray solution derived from the formulation of the technical active ingredient in 0.6 ml acetone and 45 ml formulation solution containing 10.6% Emulsogen EL (Registry number 61791-12-6), 42.2% N-methylpyrrolidone, 42.2% dipropylene glycol monomethyl ether (Registry number 34590-94-8) and 0.2% X-77 (Registry number 11097-66-8). The test plants were then grown in a greenhouse under optimum conditions until, 15 days later for post-emergence and 20 days for pre-emergence, the test was evaluated (100=total damage to plant; 0=no damage to plant).
# (§2) Alopecurus myosuroides (ALOMY), Avena fatua (AVEFA), Lolium perenne (LOLPE), Setaria faberi (SETFA), Digitaria sanguinalis (DIGSA), Echinochloa crus-galli (ECHCG)
# Lolium perenne (LOLPE) [2] = assay: Test Example 1 post-emergence herbicidal activity; settings: 360 h, rate 125 g/ha, evaluated 15 days later, read-out: Post-emergence activity LOLPE (100=total damage to plant; 0=no damage to plant)
# Procedure: as §1, §2
# Setaria faberi (SETFA) [3] = assay: Test Example 1 post-emergence herbicidal activity; settings: 360 h, rate 125 g/ha, evaluated 15 days later, read-out: Post-emergence activity SETFA (100=total damage to plant; 0=no damage to plant)
# Procedure: as §1, §2
# [4] = tested on: Alopecurus myosuroides (ALOMY); assay: Test Example 1 post-emergence herbicidal activity; settings: 360 h, rate 125 g/ha, evaluated 15 days later, read-out: Post-emergence activity ALOMY (100=total damage to plant; 0=no damage to plant)
# Procedure: as §1, §2
# Avena fatua (AVEFA) [5] = assay: Test Example 1 post-emergence herbicidal activity; settings: 360 h, rate 125 g/ha, evaluated 15 days later, read-out: Post-emergence activity AVEFA (100=total damage to plant; 0=no damage to plant)
# Procedure: as §1, §2
# [6] = tested on: Digitaria sanguinalis (DIGSA); assay: Test Example 1 post-emergence herbicidal activity; settings: 360 h, rate 125 g/ha, evaluated 15 days later, read-out: Post-emergence activity DIGSA (100=total damage to plant; 0=no damage to plant)
# Procedure: as §1, §2
# [7] = tested on: Echinochloa crus-galli (ECHCG); assay: Test Example 1 pre-emergence herbicidal activity; settings: Echinochloa crus-galli, 480 h, rate 250 g/ha, evaluated 20 days later, read-out: Pre-emergence activity ECHCG (100=total damage to plant; 0=no damage to plant)
# Procedure: as §1, §2
# Lolium perenne (LOLPE) [8] = assay: Test Example 1 pre-emergence herbicidal activity; settings: Lolium perenne, 480 h, rate 250 g/ha, evaluated 20 days later, read-out: Pre-emergence activity LOLPE (100=total damage to plant; 0=no damage to plant)
# Procedure: as §1, §2
# Setaria faberi (SETFA) [9] = assay: Test Example 1 pre-emergence herbicidal activity; settings: Setaria faberi, 480 h, rate 250 g/ha, evaluated 20 days later, read-out: Pre-emergence activity SETFA (100=total damage to plant; 0=no damage to plant)
# Procedure: as §1, §2
# [10] = tested on: Alopecurus myosuroides (ALOMY); assay: Test Example 1 pre-emergence herbicidal activity; settings: rate 250 g/ha, evaluated 20 days later; for pest or weed control at 250 g/ha: Alopecurus myosuroides, 480 h, read-out: Pre-emergence activity ALOMY (100=total damage to plant; 0=no damage to plant)
# Procedure: as §1, §2
# Avena fatua (AVEFA) [11] = assay: Test Example 1 pre-emergence herbicidal activity; settings: rate 250 g/ha, evaluated 20 days later; for pest or weed control at 250 g/ha: Avena fatua, 480 h, read-out: Pre-emergence activity AVEFA (100=total damage to plant; 0=no damage to plant)
# Procedure: as §1, §2
# [12] = tested on: Digitaria sanguinalis (DIGSA); assay: Test Example 1 pre-emergence herbicidal activity; settings: Digitaria sanguinalis, 480 h, rate 250 g/ha, evaluated 20 days later, read-out: Pre-emergence activity DIGSA (100=total damage to plant; 0=no damage to plant)
# Procedure: as §1, §2
SMILES,pest or weed control at 125 g/ha [1] [%],pest or weed control at 125 g/ha (Lolium perenne (LOLPE) [2]) [%],pest or weed control at 125 g/ha (Setaria faberi (SETFA) [3]) [%],pest or weed control at 125 g/ha [4] [%],pest or weed control at 125 g/ha (Avena fatua (AVEFA) [5]) [%],pest or weed control at 125 g/ha [6] [%],pest or weed control at 250 g/ha [7] [%],pest or weed control at 250 g/ha (Lolium perenne (LOLPE) [8]) [%],pest or weed control at 250 g/ha (Setaria faberi (SETFA) [9]) [%],pest or weed control at 250 g/ha [10] [%],pest or weed control at 250 g/ha (Avena fatua (AVEFA) [11]) [%],pest or weed control at 250 g/ha [12] [%],Pre-emergence activity ALOMY (100=total damage to plant; 0=no damage to plant) [10],Pre-emergence activity AVEFA (100=total damage to plant; 0=no damage to plant) (Avena fatua (AVEFA) [11])
CCc1cc(C)cc(CC)c1C1=C(OC(=O)C2CCCCC2)[C@H]2[C@@H](C1=O)[C@@H]1CC[C@H]2O1 (racemic) [Example P17],100,100,100,100,90,100,100,100,100,90,90,100,–,–
"CCOC(=O)OC1=C(c2c(CC)cc(C)cc2CC)C(=O)[C@@H]2[C@H]1[C@H]1CC[C@@H]2O1 (racemic) [Example P18, carbonic acid (1RS,2SR,6RS,7SR)-5-oxo-4-(2,6-diethyl-4-methylphenyl)-10-oxatricyclo[5.2.1.0^2,6]-dec-3-en-3-yl ester ethyl ester]",100,80,70,90,50,70,100,100,100,100,100,100,–,–
CCCCCCC(=O)OC1=C(c2c(CC)cc(C)cc2CC)C(=O)[C@@H]2[C@H]1[C@H]1CC[C@@H]2O1 (racemic) [Example P20],100,100,90,100,100,80,100,100,100,100,80,100,–,–
CCc1cc(C)cc(CC)c1C1=C(OC(=O)C2CC2)[C@H]2[C@@H](C1=O)[C@@H]1CC[C@H]2O1 (racemic) [Example P21],100,100,100,90,100,80,100,100,100,100,100,100,–,–
CCC(=O)OC1=C(c2c(CC)cc(C)cc2CC)C(=O)[C@@H]2[C@H]1[C@H]1CC[C@@H]2O1 (racemic) [Example P22],100,100,100,100,100,100,100,100,100,100,100,100,–,–
C#CCOC(=O)OC1=C(c2c(CC)cc(C)cc2CC)C(=O)[C@@H]2[C@H]1[C@H]1CC[C@@H]2O1 (racemic) [Example P25],100,100,80,100,90,80,100,100,100,100,100,100,–,–
C#CCOC(=O)OC1=C(c2c(C)cc(C)cc2C)C(=O)[C@@H]2[C@H]1[C@@]1(C)CC[C@]2(C)O1 (racemic) [Example P36],90,60,80,60,70,80,100,100,80,70,80,80,–,–
Cc1cc(C)c(C2=C(O)[C@H]3[C@@H](C2=O)[C@@H]2CC[C@@]3(C)O2)c(C)c1 (racemic) [Example T9],100,70,80,80,60,100,100,100,100,–,–,100,70,40
CCc1cc(C)cc(CC)c1C1=C(O)[C@H]2[C@@H](C1=O)[C@@H]1C=C(C#C[Si](C)(C)C)[C@H]2O1 (racemic) [Example T11],70,30,70,40,20,80,30,60,20,30,40,0,–,–
CCc1cc(C)cc(CC)c1C1=C(O)[C@H]2[C@@H](C1=O)[C@@H]1C=C[C@@]2(CO)O1 (racemic) [Example T13],100,90,100,80,90,50,100,90,100,80,80,100,–,–
Cc1cc(C)c(C2=C(O)[C@H]3[C@@H](C2=O)[C@@H]2C=C[C@@]3(CO)O2)c(C)c1 (racemic) [Example T37],80,20,70,50,20,50,30,30,0,60,30,20,–,–
CSC[C@]12C=C[C@H](O1)[C@@H]1C(=O)C(c3c(C)cc(C)cc3C)=C(O)[C@@H]12 (racemic) [Example T41],80,0,80,40,0,80,70,20,60,50,30,30,–,–
